These results are taken from patent publication US7528126B2, “Pyrrolobenzodiazepines” (Spirogen Limited, priority 2004, dated 2009).

The test system of test [1] is MRSA. Conditions: literature values for comparison; cited from earlier work.
Test [2] has as its system Streptococcus agalactiae. In words: Antimicrobial susceptibility test (disc diffusion), Streptococcus agalactiae. In kind it is cell-based. Conditions: dash = none; for Resistant %: share of Streptococcus agalactiae strains classed resistant; for Sensitive %: share of Streptococcus agalactiae strains classed sensitive. Here is the method:
(§1) Several bacterial colonies were transferred from the agar plates to bijoux containing MHB. The suspension is incubated at 35° C. and subsequently diluted down in sterile saline to match the density of a McFarland standard solution. A sterile cotton swab is then dipped in the bacterial inoculum and pressed against the bijou walls to remove any excess solution. MHA plates are then thoroughly streaked with the swab three times, turning the plate 60° each time. The discs are placed onto the inoculated plate within 15 minutes. The positions of the discs should allow enough space (≈24 mm) around each individual disc in order to measure the diffusion diameter at a later stage. The plates were incubated immediately at 35° C. for 16-18 hours for all organisms excluding VRE, and MRSA, which require a 24-hour incubation. The experiment was valid if there was a confluent bacterial growth, not single colonies, and circular inhibition zones were evident. Clear zones produced around the disc were measured with a ruler and interpreted according to the tables provided by the NCCLS. Bacteria were classified as sensitive, intermediate or resistant.
For orientation: In agar diffusion tests the substance spreads into inoculated agar from a disc or well.

The test system of test [3] is Streptococcus pyogenes. In words: Antimicrobial susceptibility test (disc diffusion), Streptococcus pyogenes. The settings on record: dash = none; for Sensitive %: share of Streptococcus pyogenes strains classed sensitive. In kind it is cell-based. As to the method: as §1
The subject of test [4] is Listeria monocytogenes. The test is described as follows: Antimicrobial susceptibility test (disc diffusion), Listeria monocytogenes. In kind it is cell-based. Conditions: dash = none; for Sensitive %: share of Listeria monocytogenes strains classed sensitive; for Resistant %: share of Listeria monocytogenes strains classed resistant. As to the method: as §1
The test system of test [5] is VRE. In words: Antimicrobial susceptibility test (disc diffusion), VRE. The class given is cell-based, vancomycin resistant enterococci. The settings on record: dash = none; for Resistant %: share of VRE strains classed resistant; for Sensitive %: share of VRE strains classed sensitive. As to the method:
as §1

Test [6] concerns MRSA. In words: Antimicrobial susceptibility test (disc diffusion), MRSA. In kind it is cell-based, methicillin resistant Staphylococcus aureus. Conditions: for Resistant %: share of MRSA strains classed resistant; for Sensitive %: share of MRSA strains classed sensitive. Here is the method:
as §1

Test [7] has as its system K562 human chronic myeloid leukaemia cells. The settings on record: value quoted for comparison; read-out: IC50 quoted in WO 93/18045; cited from earlier work.

Converted amounts (≈) assume the structure as drawn.

Regarding synercid, the “MIC in MRSA” value in test [1] is recorded as approximately 0.5 mg/L.
In the case of `NCC[C@H](O)C(=O)N[C@@H]1C[C@H](N)[C@@H](O[C@H]2O[C@H](CN)[C@@H](O)[C@H](O)[C@H]2O)[C@H](O)[C@H]1O[C@H]1O[C@H](CO)[C@@H](O)[C@H](N)[C@H]1O` [Amikacin], the Resistant % in test [2] and in test [3] (share of Streptococcus pyogenes strains classed resistant) was 100% in each case. In addition, in test [4], the Sensitive % was found to be 100%.
Regarding `CN[C@H](CC(C)C)C(=O)N[C@H]1C(=O)N[C@@H](CC(N)=O)C(=O)N[C@H]2C(=O)N[C@H]3C(=O)N[C@H](C(=O)N[C@H](C(=O)O)c4cc(O)cc(O)c4-c4cc3ccc4O)[C@H](O)c3ccc(c(Cl)c3)Oc3cc2cc(c3O[C@@H]2O[C@H](CO)[C@@H](O)[C@H](O)[C@H]2O[C@H]2C[C@](C)(N)[C@H](O)[C@H](C)O2)Oc2ccc(cc2Cl)[C@H]1O` [Vancomycin], the Sensitive % in test [2], in test [3] and in test [4] was 100% in each case. Further, the “MIC in MRSA” value in test [1] is “about 2 mg/L”. The molecule further came in with a Resistant % in test [5] of 100%. Also, the “susceptibility of all MRSA strains used” value in test [6] (in words, summary of Table 4) is reported as “completely susceptible”.
As to `Cc1onc(-c2ccccc2)c1C(=O)N[C@@H]1C(=O)N2[C@@H]1SC(C)(C)[C@@H]2C(=O)O` [Oxacillin], the Sensitive % in test [2] and in test [3] was 100% in each case. The Resistant % in test [5] and in test [4] was 100% throughout.
For the molecule `CC(=O)NC[C@H]1CN(c2ccc(N3CCOCC3)c(F)c2)C(=O)O1` [linezolid], the “MIC in MRSA” value in test [1] is reported as approximately 1 mg/L (≈ 2.96 µM).
Regarding `COc1cc(Cc2cnc(N)nc2N)cc(OC)c1OC` [Trimethophrim], the Sensitive % in test [2] worked out at 100%; in test [5], 25%; in test [6] (dash = none), 68%; in test [3], 100%; in test [4], 100%. The results for the Resistant % in test [5] and in test [6] (dash = none) were 75% and 32%, respectively.
For `CCC[C@@H]1C[C@@H](C(=O)N[C@@H]([C@H]2O[C@H](SC)[C@H](O)[C@@H](O)[C@H]2O)[C@H](C)Cl)N(C)C1` [Clindamycin], the Sensitive % in test [2] came to 100%; in test [5] it was 15%; in test [3], 100%. The Resistant % worked out at 85% in test [5] and 100% in test [4].
In the case of `CC=C1C[C@H]2C=Nc3cc(OCCCOc4cc5c(cc4OC)C(=O)N4CC(=CC)C[C@H]4C=N5)c(OC)cc3C(=O)N2C1` [Example 6 in WO 93/18045], the IC50 in test [7] was 0.01 µM.
On to `CN(C)[C@@H]1C(O)=C(C(N)=O)C(=O)[C@@]2(O)C(O)=C3C(=O)c4c(O)cccc4[C@@](C)(O)[C@H]3C[C@@H]12` [Tetracycline], for which the Resistant % is on record as 90% in test [2] and 60% in test [5]. Further, the Sensitive % in test [2] came out at 10%; in test [5] it was 40%; in test [3] it was 100%; in test [4], 100%.
Take `CO[C@H]1/C=C/O[C@@]2(C)Oc3c(C)c(O)c4c(O)c(c(/C=N/N5CCN(C)CC5)c(O)c4c3C2=O)NC(=O)/C(C)=C\C=C\[C@H](C)[C@H](O)[C@@H](C)[C@@H](O)[C@@H](C)[C@H](OC(C)=O)[C@@H]1C` [Rifampicin]: the Sensitive % in test [2], in test [3] and in test [4] was 100% throughout.
As for Gentamicin, the results for the Resistant % in test [2], in test [5] and in test [6] (dash = none) were 100%, 80% and 70%, respectively. Further, the Sensitive % in test [5] turned out to be 20%; in test [6] (dash = none), 22%; in test [3], 100%; in test [4], 100%. Further, in test [6] (share of MRSA strains classed intermediate, dash = none), the Intermediate % stood at 8%.
As to `CC[C@H]1OC(=O)[C@H](C)[C@@H](O[C@H]2C[C@@](C)(OC)[C@@H](O)[C@H](C)O2)[C@H](C)[C@@H](O[C@@H]2O[C@H](C)C[C@H](N(C)C)[C@H]2O)[C@](C)(O)C[C@@H](C)C(=O)[C@H](C)[C@@H](O)[C@]1(C)O` [Erythromycin], the Sensitive % was determined as 100% in test [2], 10% in test [5], 100% in test [3] and 100% in test [4]. This molecule yielded a Resistant % in test [5] of 90%.
